Laboratory results reported in patent US9474276B2, “Synergistic pesticidal compositions and related methods” (Dow AgroSciences LLC, priority 2013, dated 2016).

Tested on: diamondback moth, Plutella xylostella
Experiment: Bioassay on treated cabbage plants (track sprayer, 400 L/Ha) infested with second instar diamondback moth; synergy judged by Colby's equation
Type: in vivo
Excerpt: The method described in Colby S. R., “Calculating Synergistic and Antagonistic Responses of Herbicide Combinations,” Weeds, 1967, 15, 20-22 was used to determine an existence of synergic effect between the inhibitor of chitin biosynthesis, type 1 compound and the pesticide (I), (II), or any agriculturally acceptable salt thereof in the formulated pesticidal composition. In this method, the percent insect control of the formulated pesticidal composition as observed in the study was compared to the “expected” percent control (E) as calculated by equation (1) (hereinafter “Colby's equation”) below:
[formula] where • X is the percentage of control with the first pesticide at a given rate (p), • Y is the percentage of control with the second pesticide at a given rate (q), and • E is the expected control by the first and second pesticide at a rate of p+q.
Bioassays were performed for different active compounds. Cabbage plants with about two to three new-growth-true leaf stage were treated with different active compounds using a track sprayer application at 400 L/Ha spray volume. Three second instar diamondback moth, Plutella xylostella, were infested onto each leaf disc. The percent control of the pesticidal composition against diamondback moth, Plutella xylostella, was determined as the “Observed” action, and compared to those obtained by using about 0.000625 weight % of compound I, and using about 0.000625 weight % of buprofezin alone. The “Colby's Expected Action” was calculated using Colby's equation as discussed previously.
Bioassays were performed wherein different active compounds were tested against diamondback moth, Plutella xylostella, using the procedure described in example 5A.
Bioassays may be performed for different active compounds against diamondback moth, Plutella xylostella, using the procedure described in example 5A. The percent control may be determined after three days after the treatment.

[1] = Example 5A, active used alone, dose rate 0.000625 weight %, diamondback moth on cabbage

**Q.** Which results are given for `CCN(C(=O)CCSCCC(F)(F)F)c1cn(-c2cccnc2)nc1Cl` [Compound I, N-(3-chloro-1-(pyridin-3-yl)-1H-pyrazol-4-yl)-N-ethyl-3-((3,3,3-trifluoropropyl)thio)propanamide]?
**A.** % Control Three Days After Treatment [1]: no control; % Control Three Days After Treatment (Example 5B, compound I alone, dose rate 0.000625 weight %): 0%; % Control Three Days After Treatment (Example 5B, compound I alone, dose rate 0.000625 weight %, listed as compound I): no control; % Control Three Days After Treatment (Example 5C, compound I alone, dose rate 0.0025 weight %): 0%; % Control Three Days After Treatment (Example 5C, compound I alone, dose rate 0.0025 weight %, listed as compound I): no control

**Q.** Which results are given for `CC(C)N1C(=O)N(c2ccccc2)CS/C1=N\C(C)(C)C` [Buprofezin, (E,Z)-2-tert-butylimino-3-isopropyl-5-phenyl-1,3,5-thiadiazinan-4-one]?
**A.** % Control Three Days After Treatment [1]: 0%; % Control Three Days After Treatment (Example 5A, active used alone, dose rate 0.000625 weight %, diamondback moth on cabbage, listed as buprofezin): no control; % Control Three Days After Treatment (Example 5B, buprofezin alone, dose rate 0.0025 weight %): 0%; % Control Three Days After Treatment (Example 5B, buprofezin alone, dose rate 0.0025 weight %, listed as buprofezin): no control; % Control Three Days After Treatment (Example 5C, buprofezin alone, dose rate 0.000625 weight %): 0%; % Control Three Days After Treatment (Example 5C, buprofezin alone, dose rate 0.000625 weight %, listed as buprofezin): no control
